Source: patent US12427171B2, “Krill oil composition enriched in LPC-DHA and LPC-EPA” (Aker BioMarine Human Ingredients AS, priority 2020, dated 2025)

Assay: Rat retinal fatty acid composition after daily gavage of DHA as TAG, PC or LPC for 30 days (GC/MS)
Format: in vivo
Protocol: Normal male Sprague-Dawley rats (8-week-old; n=5 per group) were gavaged daily with 10 mg DHA in 250 μL corn oil in the form of TAG-DHA, di-DHA PC, or LPC-DHA for 30 days. […] All animals were on regular rodent chow that contained no DHA, but contained 17.4 mg α-linolenic acid (18:3, n-3) per g of chow. Retinal FA were analyzed by GC/MS as described in the text. The percent composition of 20:4 (n-6), 20:5 (n-3), 22:5 (n-3), and 22:6 (n-3) are shown here. The significance of differences between the treatment groups was determined by a one-way ANOVA, with Tukey multiple post-hoc test (Graphpad Prism 8.0). […] TG: triacylglycerol; PC: phosphatidylcholine; LPC: lysophosphatidylcholine; FA: fatty acid; GC/MS: gas chromatography/mass spectroscopy.
Animals and dietary treatments: All studies in animals described here were approved by the Institutional Animal Care and Use Committee of the University of Illinois at Chicago. The retina samples were obtained from our previous studies on the brain accretion of DHA in mice and rats, which were published previously. Male Sprague-Dawley rats (8-week-old) were purchased from Harlan laboratories (Indianapolis, IN, USA). Male C57 BL/J6 mice (2-4-months-old) were purchased from Jackson Laboratories (Bar Harbor. Maine).
In the first study, male Sprague-Dawley rats (n=5 per group, 8-week-old) were gavaged daily with 10 mg of DHA (40 mg DHA/kg body weight) in the form of TAG-DHA (DHASCO algal oil, DSM Nutritional Products, Columbia, MD, USA), synthetic di-DHA PC (phosphatidylcholine), or synthetic LPC-DHA (sn-1 acyl) for 30 days. The DHA was distributed equally among the three positions of TAG-DHA [17]. […] In the second study, 4-month-old male C57 BL/J6 mice (n=8 per group) were gavaged daily with 40 mg DHA/kg body weight in the form of free (unesterified) DHA, sn-1 acyl LPC-DHA, or sn-2 acyl LPC-DHA for 30 days as described previously. In the third study, male C57 BL/J6 mice (2-months-old, n=5 per group) were fed diets enriched with natural or lipase-treated fish oil or hill oil for 30 days. The total amount of omega-3 FA (eicosapentaenoic acid (EPA)+DHA) was 2.64 g/kg diet in all the diets. The untreated hill oil contained 18% of total omega-3 FA as LPC, whereas the lipase-treated hill oil contained >80% of the total omega-3 FA as LPC. The fish oil diets contained no LPC-EPA or LPC-DHA. The animals were trans-cardially perfused with ice cold phosphate buffered saline under anesthesia and the retinas were collected and kept frozen at −80° C. until the analysis.
Analytical procedures: The total lipids of retina were extracted by Bligh and Dyer procedure and the fatty acids were methylated using methanolic HCl. The fatty acid analysis was carried out by GC/MS (gas chromatography/mass spectroscopy) using Shimadzu QP2010SE equipped with Supelco Omegawax column, as described previously. Total ion current in the range of 50-400 m/z was used for quantification of the methyl esters. For LC/MS/MS (liquid chromatography/tandem mass spectroscopy) analysis, the lipids were extracted by the procedure of Ivanova et al.. The analysis of molecular species of phospholipids was performed on an ABSciex QTRAP mass spectrometer (Redwood City, CA, USA) coupled with Agilent 2600 UPLC system (Santa Clara, CA, USA), by multiple reaction monitoring. The internal standards 17:0 LPC, di 17:0 PC, and di 17:0 PE (phosphatidylethanolamine) were used for the quantification of the corresponding molecular species, without applying any correction factors for the differences in the ion intensity of different molecular species.
Statistics and correlations: The significance of differences between treatment groups was determined by a one-way ANOVA, with Tukey post-hoc multiple comparison corrections or unpaired t-test between control and treated samples adjusted with Holm-Sidak method (Graphpad Prism 8.0, San Diego, CA, USA). […]

CC/C=C\C/C=C\C/C=C\C/C=C\C/C=C\C/C=C\CCC(=O)OC[C@H](COP(=O)([O-])OCC[N+](C)(C)C)OC(=O)CC/C=C\C/C=C\C/C=C\C/C=C\C/C=C\C/C=C\CC [PC-DHA]
rat retinal fatty acid composition, 12:0, Mean (10 mg DHA daily by gavage): 4.57 % of total FA | rat retinal fatty acid composition, 14:0, Mean (10 mg DHA daily by gavage): 0.97 % of total FA | rat retinal fatty acid composition, 16:0, Mean (10 mg DHA daily by gavage): 19.06 % of total FA | rat retinal fatty acid composition, 16:0 DMA, Mean (10 mg DHA daily by gavage): 0.05 % of total FA | rat retinal fatty acid composition, 16:1 (n-7), Mean (10 mg DHA daily by gavage): 0.65 % of total FA | rat retinal fatty acid composition, 17:1 (n-7), Mean (10 mg DHA daily by gavage): 0.03 % of total FA | rat retinal fatty acid composition, 18:0, Mean (10 mg DHA daily by gavage): 17.79 % of total FA | rat retinal fatty acid composition, 18:0 DMA, Mean (10 mg DHA daily by gavage): 0.03 % of total FA | rat retinal fatty acid composition, 18:1 (n-7), Mean (10 mg DHA daily by gavage): 3.91 % of total FA | rat retinal fatty acid composition, 18:1 (n-9), Mean (10 mg DHA daily by gavage): 17.70 % of total FA | rat retinal fatty acid composition, 18:1 DMA, Mean (10 mg DHA daily by gavage): 0.06 % of total FA | rat retinal fatty acid composition, 18:2 (n-6), Mean (10 mg DHA daily by gavage): 0.95 % of total FA | rat retinal fatty acid composition, 18:3 (n-3), Mean (10 mg DHA daily by gavage): 0.07 % of total FA | rat retinal fatty acid composition, 18:3 (n-6), Mean (10 mg DHA daily by gavage): 0.49 % of total FA | rat retinal fatty acid composition, 20:0, Mean (10 mg DHA daily by gavage): 0.05 % of total FA | rat retinal fatty acid composition, 20:1 (n-9), Mean (10 mg DHA daily by gavage): 0.07 % of total FA | rat retinal fatty acid composition, 20:2 (n-6), Mean (10 mg DHA daily by gavage): 0.06 % of total FA | rat retinal fatty acid composition, 20:3 (n-6), Mean (10 mg DHA daily by gavage): 0.06 % of total FA | rat retinal fatty acid composition, 20:4 (n-6), Mean (10 mg DHA daily by gavage): 8.45 % of total FA | rat retinal fatty acid composition, 20:5 (n-3), Mean (10 mg DHA daily by gavage): 0.06 % of total FA | rat retinal fatty acid composition, 22:0, Mean (10 mg DHA daily by gavage): 0.07 % of total FA | rat retinal fatty acid composition, 22:2 (n-6), Mean (10 mg DHA daily by gavage): 0.12 % of total FA | rat retinal fatty acid composition, 22:4 (n-6), Mean (10 mg DHA daily by gavage): 0.07 % of total FA | rat retinal fatty acid composition, 22:5 (n-3), Mean (10 mg DHA daily by gavage): 0.06 % of total FA | rat retinal fatty acid composition, 22:5 (n-6), Mean (10 mg DHA daily by gavage): 0.02 % of total FA | rat retinal fatty acid composition, 22:6 (n-3), Mean (10 mg DHA daily by gavage): 24.53 % of total FA | rat retinal fatty acid composition, 24:1 (n-9), Mean (10 mg DHA daily by gavage): 0.05 % of total FA | change of the percentage of DHA in retina versus control (rats, 10 mg DHA/day (40 mg DHA/kg)): +45%
